Laboratory results reported in the NIST ThermoML archive (doi:10.1016/j.jct.2007.09.001).
Numbers after ± are expanded uncertainties.

Details: 298.15 K, Calvet calorimetry with correction to 298 K for gas heat capacity

## Cc1cc(C)n(C)n1 [1,3,5-trimethylpyrazole]
Crystal
  molar enthalpy of sublimation: 14.7 ± 0.765 kcal/mol

## Cc1cc[nH]n1 [3-methylpyrazole]
Liquid
  molar enthalpy of vaporization: 15.8 ± 0.956 kcal/mol
